# Legend:
# [1] = test system: HCT116 human colon cancer cells with high expression of KRAS G13D; assay: Cell Titer-Glo cell viability, HCT116 cells (72 h); format: cell-based; conditions: HCT-116
# Excerpt: Effect Example 2: Pharmacodynamic Assay 2 (Determination of the efficacy of the compounds of the present disclosure on HCT116 human colon cancer cells with high expression of KRAS G13D and A549 human non-small cell lung cancer cells with high expression of KRAS G12S)
# The following method was used to determine the effects of the compounds of the present disclosure on tumor cell proliferation.
# For KRAS G13D subtype, HCT116 human colon cancer cell was used. For KRAS G12S subtype, A549 human non-small cell lung cancer cell was used. The efficacy of the compounds in inhibiting cancer cell viability was determined. HCT116 cells or A549 cells were cultured in a DMEM medium containing 10% fetal bovine serum, 100 U penicillin and […] streptomycin. The cells were cultured in an incubator with 5% CO2 at 37° C. Cancer cell viability was evaluated by determining the content of ATP with Cell Titer-Glo® kit (Luminescent Cell Viability Assay kit, please refer to the manufacturer's instructions for use) and evaluating the inhibition of cell growth.
# The experimental method was proceeded in accordance with the steps in the instructions for the kit, and was described briefly as follows. The test compounds were first dissolved in DMSO to prepare stock solutions, and then the stock solutions were subjected to gradient dilution with the culture media of the corresponding cells, thereby preparing test samples. The final concentrations of the compounds were in the range of 30 μM to 0.01 nM. Tumor cells in logarithmic growth phase were seeded into a 96-well cell culture plate at an appropriate density. After the cell culture plate was left overnight in an incubator with 5% CO2 at 37° C., the test compound samples were added thereto and then the cells were further cultured for 72 hours. After the incubation was complete, an appropriate volume of Cell Titer-Glo® reagent was added into each well, and the cells were incubated at 37° C. for 1 to 4 hours. Then, the […] was read on a microplate reader. The percentage inhibition rates of the compounds at each concentration point were calculated by comparing the absorbance values of the sample wells with that of the control group (0.3% DMSO), and then non-linear regression analysis of the concentration of the compound vs inhibition rate was performed by using GraphPad Prism 5 software, thereby obtaining IC50 values indicating the inhibitory effects of the compounds on cell proliferation.
# [2] = test system: MIAPaCa-2 human-derived pancreatic cancer cells; assay: In-vivo pharmacodynamic experiment, MIAPaCa-2 subcutaneous xenograft in BALB/c nude mice; conditions: for TGI (%) / TIC / Tumor volumes (mm^3) (Day 23): Day 23; for Tumor volumes (mm^3) (Day 0): baseline
# Excerpt: Effect Example 4: In-Vivo Pharmacodynamic Experiment
# Purpose of the experiment: To evaluate the anti-tumor effect of the test drug in female BALB/c nude mice model subcutaneously xenografted with MIAPaCa-2 human-derived pancreatic cancer cells.
# Experimental operation: BALB/c nude mice, female, 6- to 8-weeks old, weighing about 17.6 g to 21.1 g. Each mouse was subcutaneously inoculated with 5×10^6 MIAPaCa-2 cells (with Matrigel; the volume ratio was 1:1) in the right flank. The administration was initiated when the average tumor volume reached about 100 cubic millimeters. The test compounds were orally administered daily by intragastric injection (6 mice in each group) for a total of 16 or 23 days. Tumor volumes were measured three times a week. The volume was measured in cubic millimeters and calculated by the following formula: tumor volume (mm^3)=½×(a×b^2) (where a represented the long diameter and b represented the short diameter). The anti-tumor efficacy of the compound was evaluated by TGI (%).The calculation formula was as follows: TGI %=(1−T/C)×100% (T and C were the relative tumor volumes (RTV) of a mouse in the treatment group and a mouse in the control group at a specific time point), respectively. Safety was evaluated according to the changes of the body weight of the animals and animal deaths.
# [3] = test system: NCI-H358 human non-small cell lung cancer cell with KRAS G12C mutation; assay: Cell Titer-Glo cell viability, NCI-H358 cells (72 h); format: cell-based; conditions: Homo sapiens, NCI-H358, 72 h, numeric values
# How it was run: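 NCI-H358 (KRAS G12C) cells in DMEM with 10% FBS, seeded and left overnight at 37 °C, then treated 72 h with compound at 30 μM to 0.01 nM final. Viability from ATP content with Cell Titer-Glo after 1-4 h incubation at 37 °C; […].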
# [4] = oral daily 30 mg/kg (Day 0 to Day 9) + 15 mg/kg (Day 10 to Day 16)
# [5] = oral daily 100 mg/kg (Day 0 to Day 9) + 50 mg/kg (Day 10 to Day 16) + 100 mg (Day 17 to Day 23)
compound,measurement,setting,value
"C=CC(=O)N1CCN(c2c(C#N)c(=O)n(-c3ccccc3C(C)C)c3cc(-c4c(C)ccc5[nH]ncc45)c(Cl)cc23)[C@@H](C)C1 (single isomer, unassigned) [Compound I-2-2]",IC50,[1],> 3000 nM
same,TGI (%),[2]; [4],36.25%
same,TIC,[2]; [4],63.75
same,Tumor volumes (mm^3) (Day 23),[2]; [4],438.75 mm^3
same,TGI (%),[2]; [5],85.02%
same,TIC,[2]; [5],14.98
same,Tumor volumes (mm^3) (Day 23),[2]; [5],179.60 mm^3
same,Tumor volumes (mm^3) (Day 0),[2]; [4],100.25 mm^3
same,Tumor volumes (mm^3) (Day 0),[2]; [5],100.06 mm^3
same,IC50,[3],50 nM

# — patent publication US20220064141A1, “BENZOPYRIDONE HETEROCYCLIC COMPOUND AND USE THEREOF” (BrightGene Bio-Medical Technology Co., Ltd., priority 2019, published 2022)
